These results are taken from patent US8093250B2, “2-aminocarbonyl-pyridine derivatives” (Actelion Pharmaceuticals Ltd., priority 2006, dated 2012).

In this experiment the target is T1, human P2Y12 receptor (Homo sapiens, UniProt Q9H244).
T1 construct: expressed in transfected cells; host or cells: Chinese Hamster Ovary (CHO) cells
In words: P2Y12 receptor binding assay. Conditions: CHO cells with recombinant human P2Y12 receptor; tritium-labeled 2-methyl-S-ADP; 2 hours at RT. How it is done: Chinese Hamster Ovary (CHO) cells with recombinant expression of the human P2Y12 receptor were cultured in 24 well cell-culture plates. Cells were washed three times with binding buffer (50 mM Tris pH 7.4, 100 mM NaCl, 1 mM EDTA, 0.5% BSA). The cells were then incubated with 0.5 ml per well binding buffer containing tritium-labeled 2-methyl-thio-adenosine 5′-diphosphate (2-methyl-S-ADP) (between 100'000 and 300'000 dpm per well) and various concentrations of test compounds. After incubation at RT for 2 hours, cells were washed three times with binding buffer. Then, cells were solubilized by addition of 0.5 ml solubilization buffer (SDS, NaOH, EDTA). The content of each well was then transferred into beta-counter vials and 2.0 ml of Ultima Gold Scintillation liquid was added.

T1 sequence (Q9H244 whole entry): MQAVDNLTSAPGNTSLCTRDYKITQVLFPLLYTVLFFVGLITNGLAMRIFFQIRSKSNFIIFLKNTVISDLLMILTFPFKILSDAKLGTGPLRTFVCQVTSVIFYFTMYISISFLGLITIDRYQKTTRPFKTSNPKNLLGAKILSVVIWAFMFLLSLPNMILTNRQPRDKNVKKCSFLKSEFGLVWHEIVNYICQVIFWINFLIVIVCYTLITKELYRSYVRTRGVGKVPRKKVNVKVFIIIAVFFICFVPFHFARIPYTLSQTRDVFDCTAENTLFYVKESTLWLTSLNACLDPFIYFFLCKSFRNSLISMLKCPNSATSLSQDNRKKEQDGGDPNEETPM

One may read the IC50 as the midpoint of a concentration-inhibition curve. As to `CCOC(=O)N1CCN(C(=O)[C@H](CCC(=O)O)NC(=O)c2cc(Cl)cc(-c3ccccc3)n2)CC1` [Example 1, 4-{(S)-4-carboxy-2-[(4-chloro-6-phenyl-pyridine-2-carbonyl)-amino]-butyryl}-piperazine-1-carboxylic acid ethyl ester], the half-maximal inhibitory concentration (IC50) came to 34 nM.
As to `CCOC(=O)N1CCN(C(=O)[C@H](Cc2nn[nH]n2)NC(=O)c2cc(-c3ccccc3)cc(-c3ccccc3)n2)CC1` [Example 66, 4-[(S)-2-[(4,6-diphenyl-pyridine-2-carbonyl)-amino]-3-(2H-tetrazol-5-yl)-propionyl]-piperazine-1-carboxylic acid ethyl ester], the concentration for half-maximal inhibition (IC50) is 40 nM.
As for `CCCCNc1cc(C(=O)N[C@@H](CCC(=O)O)C(=O)N2CCN(C(=O)OCC)CC2)nc(-c2ccccc2)c1F` [Example 75, 4-{(S)-2-[(4-butylamino-5-fluoro-6-phenyl-pyridine-2-carbonyl)-amino]-4-carboxy-butyryl}-piperazine-1-carboxylic acid ethyl ester], the figure is 386 nM.
In the case of `CCOC(=O)N1CCN(C(=O)[C@H](CCC(=O)O)NC(=O)c2cc(OC3CCOC3)cc(-c3ccccc3)n2)CC1` (stereo partly drawn) [Example 37, 4-((S)-4-carboxy-2-{[6-phenyl-4-(tetrahydro-furan-3-yloxy)-pyridine-2-carbonyl]-amino}-butyryl)-piperazine-1-carboxylic acid ethyl ester], the half-inhibitory concentration (IC50) was 94 nM.
With `CCCCOC(=O)N1CCN(C(=O)[C@H](CCC(=O)OC(C)(C)C)NC(=O)c2cc(N3CC[C@H](OC)C3)cc(-c3ccccc3)n2)CC1` [Example 72, 4-((S)-4-tert-butoxycarbonyl-2-{[4-((S)-3-methoxy-pyrrolidin-1-yl)-6-phenyl-pyridine-2-carbonyl]-amino}-butyryl)-piperazine-1-carboxylic acid butyl ester], the IC50 turned out to be 1760 nM.
Turning to `CCOC(=O)N1CCN(C(=O)[C@H](CCC(=O)O)NC(=O)c2cc(-c3ccsc3)cc(-c3ccccc3)n2)CC1` [Example 32, 4-{(S)-4-carboxy-2-[(6-phenyl-4-thiophen-3-yl-pyridine-2-carbonyl)-amino]-butyryl}-piperazine-1-carboxylic acid ethyl ester], the IC50 was 67 nM.
As for `CCOC(=O)N1CCN(C(=O)[C@H](CCC(=O)OC(C)(C)C)NC(=O)c2cc(Cl)cc(-c3ccccc3)n2)CC1` [Example 39, 4-{(S)-4-O-tert-butoxycarbonyl-2-[(4-chloro-6-phenyl-pyridine-2-carbonyl)-amino]-butyryl}-piperazine-1-carboxylic acid ethyl ester], the IC50 turned out to be 2150 nM.
Take `CCOC(=O)N1CCN(C(=O)[C@H](CO)NC(=O)c2cc(-c3ccccc3)cc(-c3ccccc3)n2)CC1` [Example 24, 4-{(S)-2-[(4,6-diphenyl-pyridine-2-carbonyl)-amino]-3-hydroxy-propionyl}-piperazine-1-carboxylic acid ethyl ester]: the IC50 stood at 204 nM.
With `CCCCOC(=O)N1CCN(C(=O)[C@@H](NC(=O)c2cc(N3CC[C@H](OC)C3)cc(-c3ccccc3)n2)C(C)C)CC1` [Example 69, 4-((S)-2-{[4-((S)-3-methoxy-pyrrolidin-1-yl)-6-phenyl-pyridine-2-carbonyl]-amino}-3-methyl-butyryl)-piperazine-1-carboxylic acid butyl ester], the IC50 worked out at 109 nM.
As for `CCOC(=O)N1CCN(C(=O)[C@H](CCC(=O)O)NC(=O)c2nc(-c3ccccc3)cc(C3CC3)c2OC)CC1` [Example 71, 4-{(S)-4-carboxy-2-[(4-cyclopropyl-3-methoxy-6-phenyl-pyridine-2-carbonyl)-amino]-butyryl}-piperazine-1-carboxylic acid ethyl ester], the figure is 510 nM; as for `CCOC(=O)N1CCN(C(=O)[C@H](CCC(=O)O)NC(=O)c2cc(CCC(C)(C)O)cc(-c3ccccc3)n2)CC1` [Example 28, 4-((S)-4-carboxy-2-{[4-(3-hydroxy-3-methyl-butyl)-6-phenyl-pyridine-2-carbonyl]-amino}-butyryl)-piperazine-1-carboxylic acid ethyl ester], 96 nM.
